Results reported in publication PMC10303900, “Discovery of a New Chalcone-Trimethoxycinnamide Hybrid with Antimitotic Effect: Design, Synthesis, and Structure—Activity Relationship Studies” (Pharmaceuticals, 2023).

Experiments:
HCT116 cells [1] = assay: Immunofluorescence of mitotic spindle morphology (anti-α-tubulin); format: cell-based, human; settings: HCT116, GI50 of the compound, 24 h
Experimental: To understand the mechanism behind the induction of mitotic arrest after treatment with the compound 7, we treated HCT116 cells with the GI50 of the compound. Twenty-four hours later, we performed an immunofluorescence assay using an anti-α-tubulin antibody to visualize the spindle morphology.
Cells were treated as for DAPI staining. After methanol fixation, cells were blocked with 10% FBS in PBST (0.05% Tween-20 in PBS) for 30 min at room temperature, followed by 1 h incubation with a primary antibody (mouse anti-α-tubulin, 1:2500, Sigma-Aldrich Co., Ltd., Gillingham, UK) diluted in 5% FBS in PBST. Then, cells were washed three times in PBST and incubated with an Alexa Fluor 488 conjugated secondary antibody (1:1500, Molecular Probes, Eugene, OR, USA). DNA was stained with DAPI.

HCT116 p53−/− = assay: SRB growth inhibition assay, p53 knocked-out colorectal cells; format: cell-based, human
Experimental: (§1) A total of 5.0 × 10^4 A375-C5, MCF-7, and HCT-116 cells, or 6.0 × 10^4 HPAEpiC cells were seeded in 96-well plates and incubated at 37 °C and 5% CO2 to allow for cell attachment. After 24 h, cells were treated with two-fold serial dilutions of test compounds (0–150 µM), or with DMSO as the compound solvent. In parallel, cells in a time-zero (T0) plate, without treatment, were fixed with 50% (m/v) trichloroacetic acid (TCA, Merck Millipore, Darmstadt, Germany), for 1 h at 4 °C, and then washed with distilled water and left to dry. Forty-eight hours after compound treatment, cells were fixed with 50% TCA and stained with SRB (Sigma-Aldrich Co., Ltd., Gillingham, UK) for 30 min at room temperature, followed by 5 rounds of washing with 1% (v/v) acetic acid (Merck Milli-pore, Darmstadt, Germany). SRB–protein complexes were then solubilized with […] Tris buffer (Sigma-Aldrich Co., Ltd., Gillingham, UK) for 30 min, and the absorbance was measured at 515 nm in a microplate reader (Biotek Synergy 2, BioTek Instruments, Inc., Winooski, VT, USA). A dose-response curve was obtained for each cell line, and the concentration that caused 50% cell growth inhibition (GI50) was calculated.

MCF-7 = assay: SRB growth inhibition assay, breast adenocarcinoma cells; format: cell-based; settings: Homo sapiens, MCF7, 48 h
Experimental: A sulforhodamine B (SRB) assay was performed to evaluate the in vitro growth inhibitory activity of all synthesized hybrids, as well as intermediates in the human tumor cell lines of melanoma (A375-C5), breast adenocarcinoma (MCF-7), and colorectal carcinoma (HCT116), as well as on the non-tumor Human Pulmonary Alveolar Epithelial cell line (HPAEpiC). The concentration inducing 50% cell growth inhibition (GI50), was calculated. […] The overall results prompt us to further investigate the mechanism behind the cytotoxic activities of compounds 6, 7, and 13 in colorectal tumor cells. Moreover, in silico studies were performed, aiming to screen for drug-likeness.
A375-C5 (melanoma) and MCF-7 (breast adenocarcinoma) cell lines were obtained from the European Collection of Cell Culture, UK, and were grown in RPMI-1640 medium (Roswell Park Memorial Institute, Biochrom, Cambridge, UK) with 5% inactivated FBS (fetal bovine serum, Biochrom). HCT-116 (colon adenocarcinoma) cells were grown in DMEM medium (Dulbecco’s Modified Eagle’s, Biochrom) with 5% inactivated FBS. The non-tumor human pulmonary alveolar epithelial cells (HPAEpiC) were obtained from ScienCell Research Laboratories and grown in DMEM medium supplemented with 10% FBS and 1% non-essential amino acids (Sigma-Aldrich Co., Saint Louis, MO, USA). All cell lines were maintained in a humidified incubator (Hera Cell, Heraeus, Hanau, Germany) at 37 °C and with 5% CO2, and cell viability was regularly monitored using the exclusion trypan blue dye.
as §1

p53–MDM2 interaction = target: T1, p53–MDM2 interaction (Homo sapiens, UniProt Q00987); assay: Yeast targeted screening assay of p53–MDM2 interaction; settings: 10 μM, yeast cell-based assay, data not shown
T1 construct: expressed in transfected cells; host or cells: Saccharomyces cerevisiae strain CG379
T1 sequence (Q00987 whole entry): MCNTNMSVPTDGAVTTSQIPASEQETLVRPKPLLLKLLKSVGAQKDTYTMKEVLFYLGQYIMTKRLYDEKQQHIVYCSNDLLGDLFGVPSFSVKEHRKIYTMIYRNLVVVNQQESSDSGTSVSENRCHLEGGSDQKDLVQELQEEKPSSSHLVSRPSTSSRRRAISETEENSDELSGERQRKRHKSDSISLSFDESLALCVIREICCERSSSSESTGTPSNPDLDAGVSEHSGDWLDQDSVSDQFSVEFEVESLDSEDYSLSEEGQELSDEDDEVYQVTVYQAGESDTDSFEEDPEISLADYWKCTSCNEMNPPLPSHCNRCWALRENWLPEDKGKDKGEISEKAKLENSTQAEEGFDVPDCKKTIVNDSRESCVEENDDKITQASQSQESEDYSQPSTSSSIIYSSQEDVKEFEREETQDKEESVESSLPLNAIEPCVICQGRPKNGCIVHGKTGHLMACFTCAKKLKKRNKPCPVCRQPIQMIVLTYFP
Experimental: However, since CM-M345 (1) has been previously reported as a p53-MDM2 inhibitor by our research group, the effect of 10 μM of compounds 6, 7, and 13 on the p53–MDM2 interaction was analyzed using yeast cell-based assays.
Saccharomyces cerevisiae (strain CG379) expressing human wt p53 alone and combined with human MDM2 were obtained in previous works. For the expression of human proteins (routinely grown in minimal selective medium), cells were diluted to 0.05 OD600 in selective induction medium containing 2% (w/w) galactose, 1% (w/w) raffinose, 0.7% (w/w) yeast nitrogen base without amino acids from Difco (Quilaban, Sintra, Portugal), and all the amino acids required for yeast growth ([…]) except leucine and tryptophan. Yeast cells were incubated at 30 °C under continuous orbital shaking (200 rpm) with 10 µM compounds or 0.1% DMSO only, for approximately 42 h (time required by the control yeast, co-transformed with the empty vectors and incubated with DMSO only, to achieve 0.4 OD600). Yeast growth was analyzed by counting the number of colony-forming units (CFU) after 2 days of incubation at 30 °C on Sabouraud Dextrose Agar from Liofilchem (Frilabo, Porto, Portugal).

HCT116 cells [2] = assay: Mitotic arrest / mitotic index by phase-contrast microscopy; format: cell-based, human; settings: HCT116, 24 h
Experimental: Disruption of cell cycle progression is considered one of the most common cytotoxic mechanisms of anticancer drugs. Moreover, the antimitotic effect of BP-M345 (2) has been previously reported. Therefore, compounds 6, 7, and 13 were tested for their capability to induce cell cycle arrest. HCT116 cells were exposed for 24 h to the compounds and then analyzed using phase contrast microscopy for morphological changes. Untreated and dimethyl sulfoxide (DMSO; solvent)-treated cells were used as negative controls. Cell exposure to nocodazole, an antimitotic agent, was used as a positive control. […] We thus calculated the mitotic index (MI), and observed a significant increase in MI in 7-treated cells (22.76 ± 4.30%) compared to the untreated (12.68 ± 1.98%) or DMSO-treated (12.81 ± 1.45%) (Figure 4c).
A total of 1.2 × 10^5 HCT-116 cells were grown in six-well dishes and treated for 24 h with 3.26 µM of compound 7. Cells treated with 1 µM nocodazole were used as a positive control for antimitotic activity. Untreated cells and cells treated with DMSO were included to exclude the cytotoxicity of the compound solvent. Mitotic index, and the percentage of mitotic cells over the total cell population were determined via cell-rounding under phase-contrast microscopy from at least ten random microscope fields.
For phase contrast microscopy images, a Nikon TE 2000-U microscope (Nikon, Amsterdam, The Netherlands) with a 10× objective was used, coupled to a DXM1200F digital camera with Nikon ACT-1 software (Melville, NY, USA). For fluorescence images, an Axio Observer Z.1 SD microscope (Carl Zeiss, Germany) was used, coupled to an AxioCam MR3, with the Plan Apochromatic 63×/NA 1.4 objective. The images were processed using ImageJ, version 1.51.

`CCCc1c(OCCNC(=O)/C=C/c2cc(OC)c(OC)c(OC)c2)ccc(C(=O)/C=C/c2cc(OC)c(OC)c(OC)c2)c1O` [Compound 7, (E)-N-(2-(3-hydroxy-2-propyl-4-((E)-3-(3,4,5-trimethoxyphenyl)acryloyl)phenoxy)ethyl)-3-(3,4,5-trimethoxyphenyl)acrylamide] was tested, and the “Cells with collapsed (monopolar-like) mitotic spindles” value (HCT116 cells [1]) was 91.41 ± 4.87%, the “Percentage of bipolar spindles” value (HCT116 cells [1]) was 6.57 ± 2.13% and the “SI, selective index (GI50 of HCT116 p53−/−/GI50 of HCT116 p53+/+)” value (HCT116 p53−/−) was 0.40. For the same molecule, the GI50 (HCT116 p53−/−; Homo sapiens, HCT-116, Table 2, 48 h) was 1.3 ± 0.09 µM, the GI50 (MCF-7) was greater than 75 µM and the “Effect on the p53–MDM2 interaction (reversal of the negative growth effect of MDM2 on p53)” value (p53–MDM2 interaction) was “none of the tested compounds significantly reversed the negative inhibitory growth effect of MDM2 on p53”. The “Mitotic index (MI)” value (HCT116 cells [2]; at GI50 (3.26 µM), untreated 12.68 ± 1.98%) was 22.76 ± 4.30% and the “Accumulation of bright and rounded (mitotic) cells” value (HCT116 cells [2]; phase contrast microscopy) was “accumulation of bright and rounded cells”.
